Laboratory results reported in patent US20170273922A1, “UREA AND BIS-UREA BASED COMPOUNDS AND ANALOGUES THEREOF USEFUL IN THE TREATMENT OF ANDROGEN RECEPTOR MEDIATED DISEASES OR DISORDERS” (THE ROYAL INSTITUTION FOR THE ADVACEMENT OF LEARNING/MCGILL …, priority 2014, published 2017).
Residue numbers refer to the chain shown, from its start. Entries after “also recorded” stand apart in the source; their conditions may differ.

Tests used:
[1] = target: T1, T877A mutant of full-length AR (Homo sapiens, UniProt P10275, T878A); assay: AR T877A mutant PSA-luc reporter assay in PC3 cells; type: cell-based; conditions: 24 h; for inhibition of DHT-induced transactivation of T877A mutant AR (PSA-luc): 10 nM DHT; for agonism of AR T877A mutant (PSA-luc): absence of DHT
T1 sequence (P10275 1-920 T878A): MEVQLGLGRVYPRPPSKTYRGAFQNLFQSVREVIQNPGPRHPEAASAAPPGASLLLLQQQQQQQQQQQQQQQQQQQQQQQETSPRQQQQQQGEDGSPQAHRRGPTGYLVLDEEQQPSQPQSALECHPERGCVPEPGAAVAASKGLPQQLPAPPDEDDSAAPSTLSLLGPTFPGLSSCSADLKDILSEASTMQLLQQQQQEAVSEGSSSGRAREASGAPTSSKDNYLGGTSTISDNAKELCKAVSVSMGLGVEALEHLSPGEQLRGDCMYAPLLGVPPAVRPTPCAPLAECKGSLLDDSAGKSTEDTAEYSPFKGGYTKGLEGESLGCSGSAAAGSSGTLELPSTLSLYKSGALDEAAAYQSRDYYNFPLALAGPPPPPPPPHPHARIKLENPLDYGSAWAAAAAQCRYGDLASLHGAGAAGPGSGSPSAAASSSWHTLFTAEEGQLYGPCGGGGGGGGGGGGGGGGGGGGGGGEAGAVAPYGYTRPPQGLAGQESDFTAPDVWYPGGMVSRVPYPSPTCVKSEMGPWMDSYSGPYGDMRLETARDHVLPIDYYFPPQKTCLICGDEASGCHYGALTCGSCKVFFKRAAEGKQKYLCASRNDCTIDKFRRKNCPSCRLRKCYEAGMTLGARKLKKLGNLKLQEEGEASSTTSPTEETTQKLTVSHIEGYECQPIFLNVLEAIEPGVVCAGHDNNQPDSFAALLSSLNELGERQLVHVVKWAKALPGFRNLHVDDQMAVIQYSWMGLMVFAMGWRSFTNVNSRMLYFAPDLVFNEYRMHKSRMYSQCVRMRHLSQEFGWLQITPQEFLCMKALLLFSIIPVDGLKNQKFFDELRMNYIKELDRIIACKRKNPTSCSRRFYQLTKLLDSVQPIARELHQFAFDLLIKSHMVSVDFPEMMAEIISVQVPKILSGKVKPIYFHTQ
Text: ENZ, enzalutamide; Bic, bicalutamide; OHF, hydroxyflutamide.

[2] = target: T2, H874Y mutant of full-length AR (Homo sapiens, UniProt P10275, H875Y); assay: AR H874Y mutant PSA-luc reporter assay in PC3 cells; type: cell-based; conditions: for inhibition of DHT-induced transactivation of H874Y mutant AR (PSA-luc): 10 nM DHT, PC3 cells, 24 h
T2 sequence (P10275 1-920 H875Y): T1 sequence (P10275 1-920 T878A) with H875Y, A878T

WT full-length AR = target: T3, WT full-length AR (Homo sapiens, UniProt P10275); assay: WT full-length AR PSA-luc reporter assay (DHT-induced) in transfected cells; conditions: 24 h; for inhibition of DHT-induced activation of WT full-length AR (PSA-luc): 10 nM DHT; for agonism of full-length AR WT (PSA-luc): absence of DHT, PC3 cells
T3 sequence (P10275 1-920): T1 sequence (P10275 1-920 T878A) with A878T

SMILES	inhibition of DHT-induced transactivation of T877A mutant AR (PSA-luc) [1]	agonism of AR T877A mutant (PSA-luc) [1]	agonism of AR H874Y mutant [2]	inhibition of DHT-induced transactivation of H874Y mutant AR (PSA-luc) [2]	inhibition of DHT-induced activation of WT full-length AR (PSA-luc) (WT full-length AR)	agonism of full-length AR WT (PSA-luc) (WT full-length AR)
O=C(Nc1cccc(C(F)(F)F)c1)Nc1ccc([N+](=O)[O-])c(C(F)(F)F)c1 [Compound 442]	dose-dependently suppressed; also recorded: dose-dependently inhibit	non-agonist	non-agonist	dose-dependently suppressed; also recorded: dose-dependently inhibit	dose-dependently suppressed; also recorded: dose-dependently inhibit	non-agonist
N#Cc1ccc(NC(=O)Nc2cccc(C(F)(F)F)c2)cc1C(F)(F)F [Compound 467]	dose-dependently suppressed; also recorded: dose-dependently inhibit	non-agonist	non-agonist	dose-dependently suppressed; also recorded: dose-dependently inhibit	dose-dependently suppressed; also recorded: dose-dependently inhibit	non-agonist
N#Cc1ccc(NC(=O)Nc2cccc(C(F)(F)F)c2)cc1Cl [Compound 492]	dose-dependently suppressed; also recorded: dose-dependently inhibit	non-agonist	non-agonist	dose-dependently suppressed; also recorded: dose-dependently inhibit	dose-dependently suppressed; also recorded: dose-dependently inhibit	non-agonist
O=C(N/C=C/c1cccc(C(F)(F)F)c1)Nc1ccncn1 [Compound 562]	inhibit			inhibit	dose-dependently inhibit	
O=C(Nc1cccc(C(F)(F)F)c1)Nc1ccc(NC(=O)c2ccccc2F)c(C(F)(F)F)c1 [Compound 746]	inhibit			inhibit	dose-dependently inhibit	
